Our source for the Stability, solubility and Activity values is ChEMBL document CHEMBL3853322, “Thrombospondin-1 Mimetic Agonist Peptides Induce Selective Death in Tumor Cells: Design, Synthesis, and Structure-Activity Relationship Studies” (J Med Chem, 2016).

The nature of data set [1]: Metabolic stability in human serum at 10 mg/ml at 37 degC after 2 hrs by HPLC analysis. Type of data set: ADME.
A short description of data set [2]: Aqueous solubility of compound in 50 mM sodium succinate buffer at >1 mM at pH 5 by 1D 1H NMR spectroscopic analysis. Type of data set: physicochemical.
Data set [3] is described as follows: Induction of programmed cell death in human MEC1 cells at 200 uM after 2 hrs by Annexin-V/propidium iodide staining based FACS analysis. Type of data set: functional. On the technique in general: In flow cytometry, cells or beads pass a laser one at a time.
Data set [4] can be described thus: Induction of programmed cell death in human MEC1 cells at 50 uM after 2 hrs by Annexin-V/propidium iodide staining based FACS analysis. Type of data set: functional.
Data set [5] deals with A549. In words: Induction of apoptosis in human A549 cells assessed as early apoptotic cells at 200 uM after 2 hrs by Annexin-V/propidium iodide staining based FACS analysis (reference value: 2%). Type of data set: functional.
Data set [6] deals with A549. Briefly: Induction of apoptosis in human A549 cells assessed as late apoptotic cells at 200 uM after 2 hrs by Annexin-V/propidium iodide staining based FACS analysis (reference value: 5%). Type of data set: functional.
In data set [7] the test system is MCF7. In words: Induction of apoptosis in human MCF7 cells assessed as early apoptotic cells at 200 uM after 2 hrs by Annexin-V/propidium iodide staining based FACS analysis (reference value: 4%). Type of data set: functional.
Data set [8] deals with MCF7. In words: Induction of apoptosis in human MCF7 cells assessed as late apoptotic cells at 200 uM after 2 hrs by Annexin-V/propidium iodide staining based FACS analysis (reference value: 22%). Type of data set: functional.
In data set [9] the test system is HCT-116. Briefly: Induction of apoptosis in human HCT116 cells assessed as early apoptotic cells at 200 uM after 2 hrs by Annexin-V/propidium iodide staining based FACS analysis (reference value: 4%). Type of data set: functional.
Data set [10] relates to HCT-116. Briefly: Induction of apoptosis in human HCT116 cells assessed as late apoptotic cells at 200 uM after 2 hrs by Annexin-V/propidium iodide staining based FACS analysis (reference value: 5%). Type of data set: functional.
Data set [11] can be described thus: Induction of programmed cell death in human A549 cells at 50 uM after 2 hrs by Annexin-V/propidium iodide staining based FACS analysis. Type of data set: functional.
Data set [12] is described as follows: Induction of programmed cell death in human HCT116 cells at 50 uM after 2 hrs by Annexin-V/propidium iodide staining based FACS analysis. Type of data set: functional, HCT-116.
Data set [13] is described as follows: Induction of programmed cell death in human HCT116 cells at 200 uM after 2 hrs by Annexin-V/propidium iodide staining based FACS analysis. Type of data set: functional, HCT-116.
Data set [14] concerns A549. Briefly: Induction of programmed cell death in human A549 cells after 2 hrs by Annexin-V/propidium iodide staining based FACS analysis. Type of data set: functional.
The test system of data set [15] is HCT-116. In words: Induction of programmed cell death in human HCT116 cells after 2 hrs by Annexin-V/propidium iodide staining based FACS analysis. Type of data set: functional.
For data set [16], the system named is MCF7. Briefly: Induction of programmed cell death in human MCF7 cells after 2 hrs by Annexin-V/propidium iodide staining based FACS analysis. Type of data set: functional.

Consider `CSCC[C@H](NC(=O)[C@@H](NC(=O)[C@@H](NC(=O)[C@H](Cc1ccc(O)cc1)NC(=O)[C@H](Cc1ccccc1)NC(=O)[C@H](CCCNC(=N)N)NC(=O)[C@H](N)CCCCN)C(C)C)C(C)C)C(=O)N[C@@H](Cc1c[nH]c2ccccc12)C(=O)N[C@@H](CCCCN)C(=O)N[C@H](CCCCN)C(=O)O`, for which the Stability result in data set [1] is “Stable”. In addition, in data set [2], the solubility result is on record as “Soluble”. Moreover, the Activity in data set [3] is on record as 63%; in [4] it was 25%; in data set [5], 5%; in data set [6], 60%; in data set [7] it was 6%; in data set [8], 52%. Also, the Activity in data set [9] is 4%; in data set [10], 77%; in [11] it was 25%; in data set [12], 38%; in data set [13], 80%; in [14], “Dose-dependent effect”. Besides, the Activity result in data set [15] and in [16] was “Dose-dependent effect” in each case.
